System: Vibrio percolans ATCC 8461
Assay: Assay procedure for 890 Assay Units, disc-diffusion with cephaloridine standard
Format: cell-based
Description: A conventional agar plate disc-diffusion method is employed using Vibrio percolans ATCC 8461 as tester organism. Cephaloridine is employed as a standard. Plates containing Vibrio percolans ATCC 8461 are prepared as follows. A culture of Vibrio percolans ATCC 8461 is incubated in nutrient broth-yeast extract overnight on a rotary shaker at 28° C. and then diluted to a density of 60% transmittance at 660 nm. A 33.2 ml. portion of this diluted culture is added to 1 liter of a medium composed of nutrient agar plus 0.2% yeast extract maintained at 46° C. The inoculated agar-containing medium is poured into 100 × 15 mm. plastic-petri dishes, 10 ml. per dish, chilled, and maintained at 2°-4° C. for up to 5 days before use.
The concentration of cephaloridine which is equivalent to 1 unit/ml. of 890A is deterined by assay on plates prepared as above, but containing 5 ml. of inoculated medium per plate, as follows. Four concentrations of cephaloridine constitute the standard -- 3.12, 6.25, 12.5 and 25 mcg per ml. with the 12.5 mcg per ml. as a reference solution. The zone diameters on a 5 ml. plate for the standard are as follows:
A unit is defined as the amount of antibiotic per ml. producing a 25 mm. zone of inhibition on a 5 ml. plate as described in section I above. Therefore, in this assay a concentration of 2.5 mcg per ml. of cephaloridine is considered equivalent to 1 unit of 890A per ml. Since the slope of the line for cephaloridine is 4.0 calculations of the potency of a sample are made using a slope of 4.0.

**Q.** How did the “concentration considered equivalent to 1 unit of 890A per ml.” value (25 mm. zone of inhibition on a 5 ml. plate) turn out when `O=C(Cc1cccs1)N[C@@H]1C(=O)N2C(C(=O)[O-])=C(C[n+]3ccccc3)CS[C@H]12` [cephaloridine, Cephaloridine] was run?
**A.** The value was 2.5 mcg per ml.

**Q.** What about the zone of inhibition at 3.12 µg/mL (Comamonas terrigena, ATCC8461, 3.12 mcg./ml., 5 ml. plate, read-out: Zone Diameter) of the same molecule?
**A.** The zone of inhibition at 3.12 µg/mL was 16.8 mm.

**Q.** What about the zone of inhibition at 6.25 µg/mL (Comamonas terrigena, ATCC8461, 6.25 mcg./ml., 5 ml. plate, read-out: Zone Diameter) of the same molecule?
**A.** The zone of inhibition at 6.25 µg/mL was 22.3 mm.

**Q.** What about the zone of inhibition at 12.5 µg/mL (Comamonas terrigena, ATCC8461, 12.5 mcg./ml., 5 ml. plate, read-out: Zone Diameter) of the same molecule?
**A.** The zone of inhibition at 12.5 µg/mL was 25 mm.

**Q.** What about the zone of inhibition at 25 µg/mL (Comamonas terrigena, ATCC8461, 25 mcg./ml., 5 ml. plate, read-out: Zone Diameter) of the same molecule?
**A.** The zone of inhibition at 25 µg/mL was 29.6 mm.

**Q.** And the “slope of the line” value (zone diameter against concentration of the standard)?
**A.** The value was 4.0.

From patent US4141986A, “Antibiotics 890A2 and 890A5” (Merck & Co., Inc., priority 1977, dated 1979)
